Peptide text beside a SMILES is read from it. * marks the point of attachment. Cbz = O=C(OCc1ccccc1)*; CH2F = FC*
Legend:
caspase-3, -8 and -9 = assay: Western blot, active caspase-3, -8 and -9 in LNCaP cells; assay type: cell-based, human; settings: Z-VAD-FMK 40 μM for 2 h before fisetin (10-60 μM), compared to fisetin treatment
Experimental: Protein extraction and western blotting. Following the treatment of LNCaP cells with fisetin (10-60 μM; 48 h), the media was aspirated, the cells were washed with cold PBS (pH 7.4), and ice-cold lysis buffer (50 mM Tris-HCl, 150 mM NaCl, 1 mM EGTA, 1 mM EDTA, 20 mM NaF, 100 mM Na3VO4, 0.5% NP-40, 1% Triton X-100, 1 mM PMSF (pH 7.4)) with freshly added protease inhibitor cocktail (Protease Inhibitor Cocktail Set III, Calbiochem, La Jolla, Calif.) over ice for 30 min. The cells were scraped and the lysate was collected in a microfuge tube and passed through a needle to break up the cell aggregates. […]
For western blotting, 30-50 μg protein was resolved over 8-12% polyacrylamide gels and transferred to a nitrocellulose membrane. The blot was blocked in blocking buffer (5% nonfat dry milk/1% Tween 20; in 20 mM TBS, pH 7.6) for 1 hr at room temperature, incubated with appropriate monoclonal or polyclonal primary antibody in blocking buffer for 1.5 h to overnight at 4° C., followed by incubation with anti-mouse or anti-rabbit secondary antibody horseradish peroxidase conjugate obtained from Amersham Life Science Inc. and detected by chemiluminescence and autoradiography using XAR-5 film obtained from Eastman Kodak Co. (Rochester, N.Y., USA). […]

caspase-3 and -7 = assay: Immunofluorescence staining for active caspase-3 and -7; assay type: cell-based, human; settings: LNCaP, Z-VAD-FMK 40 μM for 2 h before fisetin 40 μM
Experimental: Immunofluorescence staining for active caspase-3 and -7. LNCaP cells were incubated with 40 μM concentration of the general caspase inhibitor Z-VAD-FMK for 2 h, followed by the addition of fisetin (40 μM; 48 h) and then harvested. ICT's Magic Red™ substrate-based MR-Caspase assay kit was used for the immunofluorescence staining for caspase-3 and -7. This kit utilizes the fluorophore, cresyl violet. As the 4 amino acid sequence, aspartylglutamylalanylaspartic acid (DEVD) is the optimal sequence for caspase -3 as well as -7, it was coupled to cresyl violet to create the caspase 3/7 substrate, MR-(DEVD)2. […] Following enzymatic hydrolysis at one or both of the aspartic acid amide linkage sites, the mono and non-substituted cresyl violet fluorophores fluoresce red and fluorescence photographs were obtained at 510-560 nm excitation and 610 nm emission.

immunofluorescence staining of active caspase-3 & -7 (caspase-3 and -7): significant decrease
Structure (SMILES): COC(=O)C[C@H](NC(=O)[C@H](C)NC(=O)[C@@H](NC(=O)OCc1ccccc1)C(C)C)C(=O)CF [Z-VAD-FMK, reference compound] (Cbz-Val-Ala-Asp(OMe)-CH2F)
protein expression of active caspase-3, -8 and -9 (caspase-3, -8 and -9): significant decrease
